Test results taken from patent US5968954A, “2-aminoindan compounds as 5HT1B antagonists” (Adir et Compagnie, priority 1997, dated 1999).
One block for each compound: values may come before it.

Assays:
[1] = tested on: GR46611-induced hypothermia (prototype agonist 5HT1B) in the guinea-pig; experiment: Hypothermia test in the guinea-pig; assay type: in vivo; settings: for ΔT° C. (at 90 minutes): mean ± s.e.m., N ≥ 6
From the text: Using the hypothermia test on the guinea-pig (M. Stingle et al., J. of Pychopharmacology, 1994. 8, 14) it was possible to determine the agonist or antagonist nature of the products of the invention.
Hypothermia Test in the Guinea-Pig
The guinea-pigs are kept in batteries of three, with free access to food and water, for one week before entering the study. One hour before each experiment, the guinea-pigs are placed in individual cages with free access to water. They are put back in their respective batteries at the end of each experiment. The temperature measurements are carried out using a digital thermometer and a rectal probe. Each guinea-pig is weighed, its base body temperature is taken and then the compound of the present invention to be evaluated is injected i.p. or p.o. In the case of an agonist, the body temperature of each guinea-pig is taken every 30 minutes for 2 hours.
In the case of an antagonist, 15 minutes after its injection each guinea-pig is injected again i.p. with the prototype agonist 5HT1B : GR46611 (5 mg/kg). The temperature is then taken every 30 minutes for 2 hours.
The criterion used for evaluation is the difference in temperature at a given time in relation to the base temperature. For each dose of product and for each time (t30, t60, t90, t120) the mean and the standard error of the mean are calculated.

[2] = tested on: extracellular concentration of serotonin in frontal cortex; experiment: Microdialysis experiment in rats (frontal cortex, extracellular serotonin); assay type: in vivo; settings: rat frontal cortex, M ± s.e.m.
From the text: Carried out in the frontal cortex, these tests make it possible, in the case where the products cause an increase in the release of serotonin, to envisage their use for depression, impulsive disorders and obesity. If they cause a decrease in the release of serotonin they will be beneficial in the treatment of anxiety, panic attacks, sleep problems, cognitive problems and drug abuse problems. Finally, if they produce an increase in dopamine and/or noradrenalin, they will be beneficial in the treatment of schizophrenia and, as above, in the treatment of depression and cognitive problems.
Microdialysis Experiment in Rats
The rats are anaesthetised with pentobarbital (60 mg/kg i.p.). They are placed in a Kopf stereotaxic apparatus and the cannula guide is implanted in the frontal cortex cingulum in accordance with the coordinates described as follows in the Paxinos and Watson atlas (1982): AP:+2.2, L:±0.6, DV:-0.2. The rats are placed in separate cages and are not used in dialysis until 5 days later. On the day of dialysis, the probe is slowly inserted and maintained in its position. […] Simultaneous quantification of dopamine, norepinephrine and serotonin is carried out as follows: 20 μl of dialysis samples are diluted with 20 μl of mobile phase (NaH2 PO4 : 75 mM, EDTA: 20 μM, sodium 1-decanesulphonate: 1 mM, methanol: 17.5%, triethylamine: 0.01%, pH: 5.70) and 33 μl are analysed by HPLC with an inverse phase column (Hypersil ODS 5 μm, C18, 150×4.6 mm, Thermo Separation Products, Les Ulis, France) thermostatically controlled at 45° C. and quantified by way of a coulometric detector. […]
M±s.e.m.=mean of the effect all times merged after administration of the products±standard error of the mean, and n=number of animals. The quantities of the neurotransmitters are expressed as a function of the mean of the three base values before administration of the products and are defined as 0%. […] The reversion of the decrease of the extracellular concentration of serotonin produced by GR 46611 is evaluated statistically by an analysis of variance with drugs as between factor, F (1,25)=26.5, P<0.01.

5HT1B receptor = target: T1, 5HT1B receptor (Cavia porcellus, UniProt O08892); experiment: 5-HT1B binding ([3H]-GR 125743, guinea-pig striatal membranes); settings: [3H]-GR 125743 1 nM, guinea-pig striata membranes; pKi = -log Ki
T1 construct: After the dissection of guinea-pig brains, the extracted striata are frozen; from tissue; host or cells: guinea-pig striatum membranes
Protocol: a) Preparation of the Membranes
After the dissection of guinea-pig brains, the extracted striata are frozen and then homogenised in 20 volumes (weight/volume) of 50 mM tris-HCl (pH 7.7 at room temperature) containing 4 mM CaCl2 and 0.1% ascorbic acid, and centrifuged at 48,000 g for 25 minutes at 4° C. The supernatant is separated and the precipitate is resuspended in the same volume of buffer before being incubated at 37° C. for 15 minutes in order to extract the endogenous serotonin. Finally, the suspension is centrifuged at 48,000 g for 25 minutes at 4° C. and the precipitate is resuspended in 80 volumes of buffer that contains 10 μM pargyline. […]
The data are analysed by non-linear regression using the PRISM programme (Graphpad Software Inc., San Diego, Calif.) in order to determine the Kd values (dissocation constant of the radioligand), the Bmax values (maximum number of sites) for the saturation experiments and the IC50 values (50% inhibiting concentration) and the Hill number for the competition experiments. The inhibition constant (Ki) is calculated according to the Cheng-Prussof equation: Ki =IC50 /1+L/Kd wherein L represents the concentration of the radioligand. The results are expressed as pKi =-log Ki.

5HT1A receptor = target: T2, 5HT1A receptor (Rattus norvegicus, UniProt P19327); experiment: 5HT1A binding; settings: methods known from the literature; read-out: pKi 5HT1A receptor (converted)
T2 sequence (P19327 1-422): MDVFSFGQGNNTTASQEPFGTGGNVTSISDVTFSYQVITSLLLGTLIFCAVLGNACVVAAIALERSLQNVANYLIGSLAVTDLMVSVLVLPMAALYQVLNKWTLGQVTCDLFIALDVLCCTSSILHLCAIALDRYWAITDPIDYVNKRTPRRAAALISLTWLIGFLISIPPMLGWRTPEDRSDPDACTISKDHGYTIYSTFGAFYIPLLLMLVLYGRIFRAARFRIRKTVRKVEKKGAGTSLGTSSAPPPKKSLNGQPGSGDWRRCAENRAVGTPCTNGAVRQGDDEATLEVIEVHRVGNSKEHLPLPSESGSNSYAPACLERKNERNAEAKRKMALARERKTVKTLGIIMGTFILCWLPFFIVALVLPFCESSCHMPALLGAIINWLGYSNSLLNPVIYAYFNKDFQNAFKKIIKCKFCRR
Protocol: The 5HT1A receptor binding studies were carried out according to methods known and described in the literature (cf. S. J. Peroutka, J. Neurochem., 1986, 47, 529-40, M. J. Millan, J. Pharmacol. Exp. Ther., 1994, 268, 337-52). The results are also expressed as pKi. The compounds of the present invention have a very low affinity for the 5HT1A receptor.

T1 sequence (O08892 whole entry): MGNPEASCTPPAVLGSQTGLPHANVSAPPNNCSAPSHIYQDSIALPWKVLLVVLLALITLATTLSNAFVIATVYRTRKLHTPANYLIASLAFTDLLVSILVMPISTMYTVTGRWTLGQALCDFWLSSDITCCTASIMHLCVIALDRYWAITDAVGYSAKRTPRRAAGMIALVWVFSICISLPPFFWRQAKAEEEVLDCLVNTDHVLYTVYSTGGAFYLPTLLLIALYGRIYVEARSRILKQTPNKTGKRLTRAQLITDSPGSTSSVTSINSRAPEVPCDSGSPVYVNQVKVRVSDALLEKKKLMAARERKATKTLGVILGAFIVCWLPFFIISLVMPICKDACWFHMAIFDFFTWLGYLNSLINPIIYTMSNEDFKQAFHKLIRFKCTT

SMILES: c1ccc2c(c1)CC(NC1CCN(c3cccc4c3OCCO4)CC1)C2 [Example 1, 1-(2,3-dihydro[1,4]benzodioxin-5-yl)-4-[N-(indan-2-yl)amino]piperidine]
- ΔT° C. (at 90 minutes) ([1]; Product of Example 1 0.04 mg/kg i.p. then GR 46611 5 mg/kg i.p.): -0.82 ± 0.30 °C
- ΔT° C. (at 90 minutes) ([1]; Product of Example 1 0.16 mg/kg i.p. then GR 46611 5 mg/kg i.p.): -0.75 ± 0.22 °C
- agonist or antagonist nature ([1]; hypothermia test, i.p.): acts as an antagonist
- extracellular serotonin, mean effect all times merged relative to base values (0%) ([2]; Product of Example 1 10.0 mg/kg s.c. + GR 46611 10.0 mg/kg s.c. 20 minutes later): +0.7 ± 3.4%
- extracellular serotonin, mean effect all times merged relative to base values (0%) ([2]; Product of Example 1 10.0 mg/kg s.c. + Vehicle): -9.5 ± 3.7%

- Ki (5HT1B receptor): 3.16 nM
- Ki (5HT1A receptor): 631 nM
SMILES: c1cc2c(c(N3CCC(NC4Cc5cc6c(cc5C4)OCO6)CC3)c1)OCCO2 [Example 3, 1-(2,3-dihydro[1,4]benzodioxin-5-yl)-4-[N-(5,6-methylenedioxyindan-2-yl)amino]-piperidine]

SMILES: COc1ccc(CNC(=O)C=Cc2ccc3[nH]cc(CCN(C)C)c3c2)cc1 [GR 46611, reference compound]
- ΔT° C. (at 90 minutes) ([1]; Vehicle i.p. then GR 46611 5 mg/kg i.p.): -1.04 ± 0.15 °C
- extracellular serotonin, mean effect all times merged relative to base values (0%) ([2]; Vehicle + GR 46611 10.0 mg/kg s.c.): -40.7 ± 2.3%
